Experimental data from patent US12150972B1, “Egg white protein anti-inflammatory peptide and application thereof” (Hangzhou BIBAU Biotechnology Co., Ltd., priority 2023, dated 2024).
Peptide text beside a SMILES is read from it.

Key:
[1] = tested on: IL-1β secretion in RAW264.7 cells induced by LPS; experiment: IL-1β secretion in LPS-induced RAW264.7 cells (ELISA); format: cell-based, mouse; conditions: RAW264.7 induced by LPS; sample 500 μg/mL
Method: (§1) The three groups were cultured in the incubator for 24 hours, and the supernatants were collected. According to the instructions of the ELISA kit, the absorbance value at 450 nm was measured and the secretion amounts of inflammatory factors TNF-α, IL-6 and IL-1β were calculated. The inhibition ratios of the three inflammatory factors were calculated by formula (3).
(§2) In the formula, C refers to the inhibition ratio (%) of inflammatory factors, Co is the secretion amount of inflammatory factors in the blank group, C1 is the secretion amount of inflammatory factors in the LPS group, and C2 is the secretion amount of inflammatory factors in the sample group.

[2] = tested on: NO production in RAW264.7 cells induced by LPS; experiment: NO production amount in LPS-induced RAW264.7 cells (Griess method); format: cell-based, mouse; conditions: for NO production amount: RAW264.7 induced by LPS 1 μg/mL
Method: The NO production amount in the cell was measured by Griess method. The grouping, treatment and culture methods were the same as 1.2. After 24 hours of culture, the supernatant was collected and the NO production amount was measured using a NO detection kit. 50 μL of cell supernatant, 50 μL of Griess I reagent, and 50 μL of Griess II reagent were mixed, and stood for 5 minutes, and then the absorbance value at 540 nm was measured. According to the instructions of the NO kit, the NO production amount in each sample was calculated, and the inhibition ratio of NO production amount is calculated by formula (2).
In the formula, B refers to the NO inhibition ratio (%), B0 is the NO production amount of the blank group, B1 is the NO production amount of the LPS group, and B2 is the NO production amount of the sample group.

[3] = tested on: IL-6 secretion in RAW264.7 cells induced by LPS; experiment: IL-6 secretion in LPS-induced RAW264.7 cells (ELISA); format: cell-based, mouse; conditions: RAW264.7 induced by LPS; sample 500 μg/mL
Method: as §1, §2

[4] = tested on: TNF-α secretion in RAW264.7 cells induced by LPS; experiment: TNF-α secretion in LPS-induced RAW264.7 cells (ELISA); format: cell-based, mouse; conditions: RAW264.7 induced by LPS; sample 500 μg/mL
Method: as §1, §2

[5] = in vitro; conditions: mouse, RAW264.7 macrophage cells induced by LPS, cell viability
Method: The cell viability of RAW264.7 cells was determined by MTT method. RAW264.7 cells in the logarithmic growth phase were seeded in a 96-well plate at 100 μL/well with a density of 4×10^4/well. The outermost layer of the 96-well plate was sealed by PBS solution, and the 96-well plate was transferred to an incubator for culturing for 12 to 24 hours. The incubator temperature was 37° C. and the CO2 concentration was 5%. After the cells adhered to the wall, the waste supernatant was extracted from the 96-well plate. A blank group (added with 100 μL of culture medium), an LPS group (added with 100 μL of LPS with a final mass concentration of 1 μg/mL), and a sample group (added with 100 μL of peptides with different or the same mass concentration and added with LPS with a final mass concentration of 1 μg/mL after 2 hours of reaction) were set, and each group was performed in triplicate. After culturing for 24 hours, 20 μL of MTT solution with a concentration of 5 mg/mL was added into each well. After continuing to culture in the incubator for 4 hours, 100 μL of dimethyl sulfoxide (DMSO) was added and shaken gently for 10 min. The absorbance value at 570 nm was measured with a microplate reader, and the cell viability (%) was calculated according to the formula (1).
In the formula (1), V refers to the cell viability (%), A1 is the absorbance value of the blank group at 570 nm, and A2 is the absorbance value of the sample group at 570 nm.

## N[C@@H](Cc1ccccc1)C(=O)NCC(=O)N1CCC[C@H]1C(=O)N[C@@H](Cc1c[nH]cn1)C(=O)O [FGPH, Phe-Gly-Pro-His] (H-FGPH-OH)
[1]
  inhibition ratio of IL-1β secretion: 52.43±2.29%
[2]; sample 125 μg/mL
  NO production amount: 18.07 ± 0.31 µM
[2]; sample 250 μg/mL
  NO production amount: 16.23 ± 0.31 µM
[2]; sample 500 μg/mL
  NO production amount: 13.82 ± 0.31 µM
[2]; RAW264.7 induced by LPS, sample 500 μg/mL
  inhibition ratio of NO production amount: 64.41±0.47%
[3]
  inhibition ratio of IL-6 secretion: 41.72±1.83%
[4]
  inhibition ratio of TNF-α secretion: 28.07±2.10%
[5]
  viability at 24 h, 125 µg/mL: > 109%
  viability at 24 h, 250 µg/mL: > 109%
  viability at 24 h, 500 µg/mL: > 109%
  viability at 24 h, 1000 µg/mL: < 97%
